The structures appear in SMILES notation. The source made the active and inactive calls.

In one assay the target is Cytochrome P450 3A4 (Homo sapiens, UniProt P08684). The note with it: Potency.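 Further: confirmatory qHTS run detecting inhibitors and substrates of CYP3A4.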
In a further assay the target is Cytochrome P450 2D6 (Homo sapiens, UniProt P10635). The assay can be described thus: qHTS Assay for Inhibitors and Substrates of Cytochrome P450 2D6. [Related pubchem assays: 410 ]. Format: ADME. To be noted: read-out: Potency. For orientation: In qHTS, concentration-response curves come from the screen itself.
The target of another assay is Cytochrome P450 2C9 (Homo sapiens, UniProt P11712). The note with it: Potency.
Another assay deals with T1, Insulin-degrading enzyme (Homo sapiens, UniProt P14735).
T1 sequence (P14735 whole entry): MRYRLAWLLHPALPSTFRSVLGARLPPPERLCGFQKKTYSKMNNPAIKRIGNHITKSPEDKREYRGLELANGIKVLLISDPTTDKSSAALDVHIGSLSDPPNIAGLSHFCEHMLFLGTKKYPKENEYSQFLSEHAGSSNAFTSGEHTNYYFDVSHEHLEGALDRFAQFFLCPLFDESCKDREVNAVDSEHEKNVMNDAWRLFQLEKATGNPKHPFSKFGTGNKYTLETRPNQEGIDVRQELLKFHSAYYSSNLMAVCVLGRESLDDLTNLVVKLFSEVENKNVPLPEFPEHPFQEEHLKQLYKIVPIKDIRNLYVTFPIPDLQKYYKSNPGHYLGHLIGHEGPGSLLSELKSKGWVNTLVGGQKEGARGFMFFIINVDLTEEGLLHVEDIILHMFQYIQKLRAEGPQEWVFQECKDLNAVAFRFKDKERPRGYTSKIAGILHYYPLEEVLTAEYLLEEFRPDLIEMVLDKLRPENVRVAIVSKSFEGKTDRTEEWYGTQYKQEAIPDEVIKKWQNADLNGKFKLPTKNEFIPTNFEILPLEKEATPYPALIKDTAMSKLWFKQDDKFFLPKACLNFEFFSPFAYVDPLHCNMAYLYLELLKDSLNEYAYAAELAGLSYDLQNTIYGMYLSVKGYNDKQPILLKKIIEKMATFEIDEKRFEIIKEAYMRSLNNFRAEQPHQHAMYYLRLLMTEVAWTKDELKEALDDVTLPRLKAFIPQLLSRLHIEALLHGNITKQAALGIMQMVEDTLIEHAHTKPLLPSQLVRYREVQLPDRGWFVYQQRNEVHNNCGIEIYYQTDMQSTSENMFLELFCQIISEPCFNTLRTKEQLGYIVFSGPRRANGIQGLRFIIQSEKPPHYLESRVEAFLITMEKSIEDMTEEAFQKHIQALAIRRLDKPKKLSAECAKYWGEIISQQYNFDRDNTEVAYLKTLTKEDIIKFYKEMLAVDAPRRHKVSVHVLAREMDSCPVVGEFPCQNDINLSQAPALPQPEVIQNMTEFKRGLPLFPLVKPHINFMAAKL
The assay can be described thus: Dose Response: Fluorescence polarization-based cell-based high throughput dose response assay for inhibitors of insulin-degrading enzyme (IDE). [Related pubchem assays: 434962 (Primary screen (IDE inhibitors in singlicate)), 449730 (Counterscreen (Cytotoxicity in triplicate)), 435028 (Confirmation (IDE inhibitors in triplicate)), 434984 (Summary …. The format is functional. For orientation: In fluorescence polarisation assays a small probe gives low polarisation when free and higher when bound to something large.

Assay [1] can be described thus: mitochondrial function rescue without frataxin homolog – Friedreich's ataxia, plus single-dose screen, dose response (AID 1465).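 Further: yeast depleted of Yfh1p frataxin homolog grown on glycerol needing respiration; WST-1 tetrazolium dye reduction as measure of cellular dehydrogenase metabolic activity.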 The format is functional.
Assay [2] is described as follows: Counterscreen for IDE inhibitors: Luminescence-based cell-based high throughput dose response assay to identify compounds that are cytotoxic to HEK cells. [Related pubchem assays: 434962 (Primary screen (IDE inhibitors in singlicate)), 449730 (Counterscreen (Cytotoxicity in triplicate)), 435028 (Confirmation (IDE inhibitors in triplicate)) …. Format: functional. The note with it: HEK293.

The target in a further assay is T2, Leucine aminopeptidase (Plasmodium falciparum 3D7, UniProt Q8IL11).
T2 sequence (Q8IL11 whole entry): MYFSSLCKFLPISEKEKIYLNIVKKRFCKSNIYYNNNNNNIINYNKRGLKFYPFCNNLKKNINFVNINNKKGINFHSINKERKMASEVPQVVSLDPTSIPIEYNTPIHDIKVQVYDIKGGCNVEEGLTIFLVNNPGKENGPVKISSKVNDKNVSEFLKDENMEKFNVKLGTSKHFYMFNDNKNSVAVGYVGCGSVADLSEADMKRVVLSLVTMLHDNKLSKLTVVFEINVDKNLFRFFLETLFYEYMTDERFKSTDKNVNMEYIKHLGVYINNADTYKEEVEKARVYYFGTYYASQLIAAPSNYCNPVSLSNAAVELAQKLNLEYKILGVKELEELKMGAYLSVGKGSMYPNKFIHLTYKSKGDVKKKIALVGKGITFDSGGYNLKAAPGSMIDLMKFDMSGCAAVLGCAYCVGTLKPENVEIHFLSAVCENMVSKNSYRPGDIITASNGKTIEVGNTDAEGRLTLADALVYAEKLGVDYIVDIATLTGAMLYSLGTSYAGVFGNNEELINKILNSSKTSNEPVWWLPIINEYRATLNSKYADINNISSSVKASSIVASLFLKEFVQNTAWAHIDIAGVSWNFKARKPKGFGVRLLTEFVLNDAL
Put plainly: P. falciparum M17LAP inhibitors, primary screen, biochemical, fluorogenic H-Leu-NHMec substrate, 1536-well (AID 1619). Format: functional.

For a further assay, the target named is Trypsin (Sus scrofa, UniProt P00761). The assay can be described thus: trypsin protease activity blockade – biochemical, quenched peptide fluorescence, cherry-pick, selectivity assay for Rce1 protease inhibitor project, dose response (AID 488789).
Assay [3] addresses CAAX prenyl protease 2 (Saccharomyces cerevisiae S288c, UniProt Q03530). Format: biochemical.
The target in assay [4] is T3, CAAX prenyl protease 2 (Homo sapiens, UniProt Q9Y256).
T3 sequence (Q9Y256 whole entry): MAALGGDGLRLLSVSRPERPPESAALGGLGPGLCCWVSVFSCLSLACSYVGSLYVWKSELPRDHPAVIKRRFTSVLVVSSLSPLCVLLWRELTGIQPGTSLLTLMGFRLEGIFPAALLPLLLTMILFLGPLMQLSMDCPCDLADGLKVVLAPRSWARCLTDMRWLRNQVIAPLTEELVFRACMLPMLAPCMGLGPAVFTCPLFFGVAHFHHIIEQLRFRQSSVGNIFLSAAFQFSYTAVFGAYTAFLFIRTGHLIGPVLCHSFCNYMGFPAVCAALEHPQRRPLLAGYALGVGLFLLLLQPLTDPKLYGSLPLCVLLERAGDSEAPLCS
The assay can be described thus: inhibition of Ras-converting CAAX protease Rce1 – biochemical, yeast membranes, quenched-peptide fluorescence, cherry-pick, dose response (AID 588849).

For assay [5], the target named is Peroxisome proliferator-activated receptor gamma/Nuclear receptor corepressor 2 (Homo sapiens, UniProt P37231+Q9Y618). The format is functional.
The target in assay [6] is Peroxisome proliferator-activated receptor gamma/Nuclear receptor coactivator 3 (Homo sapiens, UniProt P37231). The assay can be described thus: TR-FRET dose response biochemical High Throughput Screening assay for agonists of the steroid receptor coactivator 3 (SRC-3) recruitment by the peroxisome proliferator-activated receptor gamma (PPAR gamma): non-selective agonists. [Related pubchem assays: 1301 (Confirmation screen.), 1048 (Primary screen.)]. The format is functional.

Assay [7] concerns the target Photoreceptor-specific nuclear receptor (Homo sapiens, UniProt Q9Y5X4). The format is functional.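 Further: potency for compounds that break the NR2E3 corepressor complex and count as activators.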
Assay [8] concerns the target Peroxisome proliferator-activated receptor gamma/Nuclear receptor coactivator 1 (Homo sapiens, UniProt P37231). The assay can be described thus: TR-FRET dose response biochemical High Throughput Screening assay for agonists of the steroid receptor coactivator 1 (SRC-1) recruitment by the peroxisome proliferator-activated receptor gamma (PPAR gamma): non-selective agonists. [Related pubchem assays (depositor defined):AID1300, AID1808, AID504735, AID631]. The format is protein assay. A general note: Time-resolved FRET reads energy transfer from a long-lived donor to a nearby acceptor.

In assay [9] the target is Peroxisome proliferator-activated receptor gamma/Nuclear receptor coactivator 2 (Homo sapiens, UniProt P37231). The assay can be described thus: TR-FRET dose response biochemical High Throughput Screening assay for agonists of the steroid receptor coactivator 2 (SRC-2) recruitment by the peroxisome proliferator-activated receptor gamma (PPAR gamma): non-selective agonists. [Related pubchem assays: 1297, 1032 ]. The format is functional.

Assay [10] has as its target Induced myeloid leukemia cell differentiation protein Mcl-1 (Homo sapiens, UniProt Q07820). Format: functional.
Assay [11] has as its target T4, Voltage-gated N-type calcium channel alpha-1B subunit/Amyloid beta A4 precursor protein-binding family A member 1 (Homo sapiens, UniProt Q00975+Q02410). The format is protein assay.
Assay [12] concerns the target T4, Voltage-gated N-type calcium channel alpha-1B subunit/Amyloid beta A4 precursor protein-binding family A member 1. The format is protein assay. This is another data set of the same source.
A short description of assay [13]: A Cell Based Secondary Assay To Explore Cytotoxicity of Compounds that Sensitize Mycobacterium Tuberculosis to Beta-Lactam Antibiotics. Format: functional.
Assay [14] concerns the target Neurotensin receptor type 1 (Homo sapiens, UniProt P30989). Format: functional.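 Further: Image-based confirmatory dose-response assay measuring agonist activity at NTR1; NTR1-expressing U2OS osteosarcoma cells imaged for beta-arrestin GFP spot formation; agonist potency where compounds increase beta-arrestin recruitment.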
Assay [15] deals with T5, Corticotropin-releasing factor receptor 2/Corticotropin-releasing factor-binding protein (Homo sapiens, UniProt P24387+Q13324).
T5 sequence (Q13324 whole entry): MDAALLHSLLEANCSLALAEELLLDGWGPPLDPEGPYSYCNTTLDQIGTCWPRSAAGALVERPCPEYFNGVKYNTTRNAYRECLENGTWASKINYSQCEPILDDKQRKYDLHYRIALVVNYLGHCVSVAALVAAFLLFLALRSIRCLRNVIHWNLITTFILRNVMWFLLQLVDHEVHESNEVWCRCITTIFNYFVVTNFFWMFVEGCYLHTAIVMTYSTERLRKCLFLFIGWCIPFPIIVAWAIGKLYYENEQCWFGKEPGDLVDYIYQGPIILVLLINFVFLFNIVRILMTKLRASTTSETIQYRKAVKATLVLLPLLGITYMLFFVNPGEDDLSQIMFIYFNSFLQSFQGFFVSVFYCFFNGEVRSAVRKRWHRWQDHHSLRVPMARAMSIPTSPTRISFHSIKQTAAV
T5 sequence (P24387 whole entry): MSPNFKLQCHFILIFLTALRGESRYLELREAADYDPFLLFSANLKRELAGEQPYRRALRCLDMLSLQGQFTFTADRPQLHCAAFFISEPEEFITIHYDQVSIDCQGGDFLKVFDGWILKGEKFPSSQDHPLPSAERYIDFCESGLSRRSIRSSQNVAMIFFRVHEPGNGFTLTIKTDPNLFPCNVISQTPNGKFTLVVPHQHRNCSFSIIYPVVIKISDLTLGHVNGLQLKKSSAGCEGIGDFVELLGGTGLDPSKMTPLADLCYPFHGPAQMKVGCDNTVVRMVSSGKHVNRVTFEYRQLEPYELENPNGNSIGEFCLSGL
The assay can be described thus: activators of CRF receptor 2 with binding protein – uHTS hits, confirmation (AID 602473). Format: functional. The note with it: read-out: EC50_Mean.

A further assay deals with Hexokinase (Trypanosoma brucei, UniProt Q38C41). The assay can be described thus: Confirmation assay for inhibitors of Trypanosoma brucei hexokinase 1-Analogue-first series. [Related pubchem assays (depositor defined):AID1430, AID1632, AID2516, AID2560, AID2579, AID2600, AID449725, AID492951]. The format is functional.
Hexokinase, sequence (Q38C41 whole entry): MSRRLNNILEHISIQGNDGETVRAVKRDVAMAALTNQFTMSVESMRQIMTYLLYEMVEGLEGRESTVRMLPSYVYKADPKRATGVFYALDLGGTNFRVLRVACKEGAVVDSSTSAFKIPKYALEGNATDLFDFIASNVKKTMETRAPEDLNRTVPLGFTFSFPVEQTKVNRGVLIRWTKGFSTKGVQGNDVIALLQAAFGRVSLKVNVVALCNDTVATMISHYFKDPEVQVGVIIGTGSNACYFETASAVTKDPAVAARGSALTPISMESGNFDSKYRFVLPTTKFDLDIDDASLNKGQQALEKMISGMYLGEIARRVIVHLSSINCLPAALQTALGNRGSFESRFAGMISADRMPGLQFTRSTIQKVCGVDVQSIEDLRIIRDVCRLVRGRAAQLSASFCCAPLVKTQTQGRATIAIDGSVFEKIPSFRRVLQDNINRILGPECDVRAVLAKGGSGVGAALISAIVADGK

T4 sequence (Q00975 whole entry): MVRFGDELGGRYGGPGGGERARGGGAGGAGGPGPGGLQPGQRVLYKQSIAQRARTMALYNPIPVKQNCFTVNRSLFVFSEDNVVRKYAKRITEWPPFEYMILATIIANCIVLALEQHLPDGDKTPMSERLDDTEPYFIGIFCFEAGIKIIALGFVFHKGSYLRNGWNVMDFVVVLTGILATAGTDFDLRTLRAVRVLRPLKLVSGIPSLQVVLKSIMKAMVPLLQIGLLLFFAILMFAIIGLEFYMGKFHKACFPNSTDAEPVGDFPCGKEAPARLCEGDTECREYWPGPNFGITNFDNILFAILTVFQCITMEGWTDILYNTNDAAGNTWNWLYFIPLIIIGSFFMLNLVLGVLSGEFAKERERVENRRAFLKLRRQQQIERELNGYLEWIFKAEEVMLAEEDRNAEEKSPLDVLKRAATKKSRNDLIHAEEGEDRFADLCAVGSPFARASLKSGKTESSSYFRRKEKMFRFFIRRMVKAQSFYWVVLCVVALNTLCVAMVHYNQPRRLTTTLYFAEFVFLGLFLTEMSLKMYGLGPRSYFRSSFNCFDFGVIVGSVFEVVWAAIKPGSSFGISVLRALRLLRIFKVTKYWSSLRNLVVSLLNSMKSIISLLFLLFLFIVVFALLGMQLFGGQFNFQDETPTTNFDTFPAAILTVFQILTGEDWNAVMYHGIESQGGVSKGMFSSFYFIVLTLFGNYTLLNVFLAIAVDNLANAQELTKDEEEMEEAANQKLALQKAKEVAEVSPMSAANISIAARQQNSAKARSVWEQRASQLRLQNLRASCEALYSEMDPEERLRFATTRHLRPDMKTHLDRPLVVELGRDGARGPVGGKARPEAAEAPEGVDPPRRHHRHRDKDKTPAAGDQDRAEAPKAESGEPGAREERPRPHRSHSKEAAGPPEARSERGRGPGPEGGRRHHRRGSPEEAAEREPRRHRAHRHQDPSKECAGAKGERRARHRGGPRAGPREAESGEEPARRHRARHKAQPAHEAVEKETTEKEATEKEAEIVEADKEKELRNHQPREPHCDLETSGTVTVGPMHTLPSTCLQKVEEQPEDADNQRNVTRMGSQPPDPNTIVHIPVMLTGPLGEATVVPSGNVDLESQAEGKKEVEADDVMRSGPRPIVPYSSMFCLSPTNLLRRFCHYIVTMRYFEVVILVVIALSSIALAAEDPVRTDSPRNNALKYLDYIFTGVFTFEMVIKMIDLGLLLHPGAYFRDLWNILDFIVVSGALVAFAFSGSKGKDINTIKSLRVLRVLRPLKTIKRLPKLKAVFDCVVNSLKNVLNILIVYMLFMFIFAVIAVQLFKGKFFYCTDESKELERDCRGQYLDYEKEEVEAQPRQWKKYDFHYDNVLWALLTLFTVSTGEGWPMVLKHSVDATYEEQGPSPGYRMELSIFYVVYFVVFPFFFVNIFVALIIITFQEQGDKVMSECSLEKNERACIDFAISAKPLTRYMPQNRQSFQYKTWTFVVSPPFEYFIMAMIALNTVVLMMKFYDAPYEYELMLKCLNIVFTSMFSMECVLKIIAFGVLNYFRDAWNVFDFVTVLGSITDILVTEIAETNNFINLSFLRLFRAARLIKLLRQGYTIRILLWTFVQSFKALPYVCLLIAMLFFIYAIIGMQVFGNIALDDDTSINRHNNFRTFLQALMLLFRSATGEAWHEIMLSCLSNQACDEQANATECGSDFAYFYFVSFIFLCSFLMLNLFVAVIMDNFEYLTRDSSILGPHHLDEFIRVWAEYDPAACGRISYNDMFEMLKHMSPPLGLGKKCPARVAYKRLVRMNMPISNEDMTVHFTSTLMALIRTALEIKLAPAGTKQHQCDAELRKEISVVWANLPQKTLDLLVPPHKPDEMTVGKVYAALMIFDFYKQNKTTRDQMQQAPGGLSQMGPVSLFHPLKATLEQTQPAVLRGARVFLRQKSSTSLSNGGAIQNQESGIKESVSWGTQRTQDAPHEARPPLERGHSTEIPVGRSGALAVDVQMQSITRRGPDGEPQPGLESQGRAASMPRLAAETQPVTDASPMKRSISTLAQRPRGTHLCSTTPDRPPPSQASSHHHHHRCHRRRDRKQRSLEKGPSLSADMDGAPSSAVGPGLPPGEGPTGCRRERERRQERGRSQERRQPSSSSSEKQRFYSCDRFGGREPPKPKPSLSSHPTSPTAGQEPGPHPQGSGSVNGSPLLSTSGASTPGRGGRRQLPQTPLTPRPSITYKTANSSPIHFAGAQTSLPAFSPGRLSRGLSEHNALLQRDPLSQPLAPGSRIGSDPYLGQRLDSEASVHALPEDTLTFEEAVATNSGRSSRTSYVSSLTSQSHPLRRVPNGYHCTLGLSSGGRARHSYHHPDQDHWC
T4 sequence (Q02410 whole entry): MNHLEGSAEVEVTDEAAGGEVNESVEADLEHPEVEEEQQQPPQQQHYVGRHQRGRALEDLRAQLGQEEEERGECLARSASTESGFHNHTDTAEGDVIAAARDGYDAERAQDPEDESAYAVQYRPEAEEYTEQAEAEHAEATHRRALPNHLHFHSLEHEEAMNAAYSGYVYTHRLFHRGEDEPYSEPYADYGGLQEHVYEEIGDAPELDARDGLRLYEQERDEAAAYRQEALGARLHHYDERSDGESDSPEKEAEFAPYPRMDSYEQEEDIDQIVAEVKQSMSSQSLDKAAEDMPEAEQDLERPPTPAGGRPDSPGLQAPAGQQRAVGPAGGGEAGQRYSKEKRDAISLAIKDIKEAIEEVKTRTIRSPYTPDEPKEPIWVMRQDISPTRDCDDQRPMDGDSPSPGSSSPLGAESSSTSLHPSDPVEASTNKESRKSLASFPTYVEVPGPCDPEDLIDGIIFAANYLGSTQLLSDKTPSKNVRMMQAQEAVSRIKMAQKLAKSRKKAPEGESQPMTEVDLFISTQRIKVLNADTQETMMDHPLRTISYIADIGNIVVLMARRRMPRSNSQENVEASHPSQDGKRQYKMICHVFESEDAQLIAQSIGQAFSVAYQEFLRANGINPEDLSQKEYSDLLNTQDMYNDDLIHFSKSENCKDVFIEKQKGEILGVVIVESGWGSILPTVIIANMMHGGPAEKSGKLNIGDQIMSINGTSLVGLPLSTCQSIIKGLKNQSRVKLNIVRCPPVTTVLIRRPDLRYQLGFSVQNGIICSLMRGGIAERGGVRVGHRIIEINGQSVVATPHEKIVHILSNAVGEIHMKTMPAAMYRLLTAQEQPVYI
Cytochrome P450 2C9, sequence (P11712 whole entry): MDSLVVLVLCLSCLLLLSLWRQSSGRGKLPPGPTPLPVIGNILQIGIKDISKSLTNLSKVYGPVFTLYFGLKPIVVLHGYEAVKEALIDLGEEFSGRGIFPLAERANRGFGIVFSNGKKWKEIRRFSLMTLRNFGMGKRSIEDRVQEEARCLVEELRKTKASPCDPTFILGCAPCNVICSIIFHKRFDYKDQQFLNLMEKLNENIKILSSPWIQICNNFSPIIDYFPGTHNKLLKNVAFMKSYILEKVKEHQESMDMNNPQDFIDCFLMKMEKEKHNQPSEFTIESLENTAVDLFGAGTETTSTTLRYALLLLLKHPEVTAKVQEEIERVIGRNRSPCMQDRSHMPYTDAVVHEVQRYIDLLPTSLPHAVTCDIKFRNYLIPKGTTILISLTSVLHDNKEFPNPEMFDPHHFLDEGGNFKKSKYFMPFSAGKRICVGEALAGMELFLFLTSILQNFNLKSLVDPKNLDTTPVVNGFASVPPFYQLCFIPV
CAAX prenyl protease 2 (Saccharomyces cerevisiae S288c, UniProt Q03530), sequence (Q03530 whole entry): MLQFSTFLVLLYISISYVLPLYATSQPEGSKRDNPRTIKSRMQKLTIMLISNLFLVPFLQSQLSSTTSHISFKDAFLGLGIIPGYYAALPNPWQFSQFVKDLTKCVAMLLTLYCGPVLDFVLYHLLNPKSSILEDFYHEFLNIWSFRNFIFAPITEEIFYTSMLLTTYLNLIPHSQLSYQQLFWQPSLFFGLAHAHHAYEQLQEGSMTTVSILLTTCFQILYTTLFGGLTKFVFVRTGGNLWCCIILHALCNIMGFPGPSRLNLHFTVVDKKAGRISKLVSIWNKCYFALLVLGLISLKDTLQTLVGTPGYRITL
Photoreceptor-specific nuclear receptor, sequence (Q9Y5X4 whole entry): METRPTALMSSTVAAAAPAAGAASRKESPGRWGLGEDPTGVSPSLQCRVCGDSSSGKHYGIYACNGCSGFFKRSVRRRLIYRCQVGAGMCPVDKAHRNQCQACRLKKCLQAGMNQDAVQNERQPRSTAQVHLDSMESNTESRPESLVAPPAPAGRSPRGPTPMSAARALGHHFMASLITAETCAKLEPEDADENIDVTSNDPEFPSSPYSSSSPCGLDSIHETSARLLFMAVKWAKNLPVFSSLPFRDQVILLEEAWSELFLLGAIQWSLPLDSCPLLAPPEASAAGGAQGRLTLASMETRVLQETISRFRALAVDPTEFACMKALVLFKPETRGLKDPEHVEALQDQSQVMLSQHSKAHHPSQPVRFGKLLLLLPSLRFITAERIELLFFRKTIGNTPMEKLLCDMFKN

With `Nc1c(S(=O)(=O)O)cc(Nc2ccc(Nc3nc(Cl)nc(Nc4ccc(S(=O)(=O)O)cc4)n3)c(S(=O)(=O)O)c2)c2c1C(=O)c1ccccc1C2=O`, the AC50 on Cytochrome P450 3A4 was 25.1 µM (inconclusive); on Cytochrome P450 2D6, 39.8 µM (inconclusive); on Cytochrome P450 2C9, 39.8 µM (inconclusive).

By IC50 is commonly meant the point on the concentration scale where inhibition reaches its midpoint. For `CCN(CC)c1ccc(/C=C(/C#N)C(=O)NC(C)C)o1`, the figures for the IC50 (on Insulin-degrading enzyme; in assay [2]; on Leucine aminopeptidase) were 13.2 µM (not active), > 55.7 µM (not active) and 65.8 µM (active), respectively. The EC50 in assay [1] was > 100 µM (active).

Regarding `Cc1cc(C)cc(Nc2ccc(C(=O)O)cc2N)c1`, the AC50 was 2.73 µM (active) at Trypsin, 84.5 µM (active) on CAAX prenyl protease 2 [3] and 3.8 µM (active) on CAAX prenyl protease 2 [4].

Regarding `O=C(Nc1nc(-c2cccs2)c(C(=O)C(F)(F)F)s1)c1ccco1`, the IC50 was 2.22 µM (active) in assay [5] and > 39.8 µM (not active) in assay [7]. Further, the EC50 is > 79.4 µM (not active) in assay [6], > 79.4 µM (inactive) in [8] and 50 µM (not active) in assay [9].

In the case of `Cc1ccc(-c2nc3c(c(=O)[nH]c(=O)n3Cc3ccccc3)n2C)o1`, the IC50 in assay [10] is 4.71 µM (active); in [11] it was 6.21 µM (active); in assay [12] it was 6.07 µM (active).

Usually CC50 stands for the concentration that lowers cell viability or growth by half. As to `CCOC(=O)c1sc(Nc2nc3c(OC)cccc3s2)cc1C`, the CC50 in [13] is > 40 µM (active).

Regarding `CC1(C)CC(=O)C(=Cc2cn(-c3ccccc3)nc2-c2ccc(Cl)cc2)C(=O)C1`, the EC50 in assay [14] was 35.3 µM (inactive); in [15] it was > 53 µM (inactive).

Turning to `O=C(O)c1ccccc1NC(=O)c1ccccc1C(=O)O`, the IC50 at Hexokinase was > 25 µM (inactive).

For the molecule `COc1ccc(C(=O)NC(CC(=O)O)c2ccccc2)cc1` (centres undefined), at Hexokinase, the IC50 was > 25 µM (inactive).

On to `Cc1ccc(C(C)C)c(OCc2ccc(C(=O)N/N=C/c3ccc(C(=O)O)cc3)cc2)c1`, for which the CC50 in assay [13] is > 40 µM (active).

Source of the values: ChEMBL document CHEMBL1201862, “PubChem BioAssay data set” (2004).
